Converted amounts (≈) assume the structure as drawn.

By MIC is commonly meant the lowest concentration that inhibits growth of the organism. One may read the IC50 as the concentration at which inhibition is half-maximal. A high value points to weaker potency.

The subject of one assay is Bacillus subtilis. As to the kind of experiment: Antibacterial activity against Bacillus subtilis ATCC 6633 after 24 hr by serial dilution method. The format is functional. Particulars: ATCC 6633, 24 h.
The subject of another assay is A549. As to the kind of experiment: Cytotoxicity against Homo sapiens (human) A549 cells after 72 hr by MTT assay. The class given is functional, cell-based. Particulars: A549, 72 h. (In general: Tetrazolium dyes change colour on reduction, which living cells bring about.)
The subject of the next assay is Escherichia coli. Briefly: Antibacterial activity against Escherichia coli ATCC 25922 after 24 hr by serial dilution method. Particulars: ATCC 25922, 24 h. The class given is functional.
In another assay the test system is Pseudomonas aeruginosa. Briefly: Antibacterial activity against Pseudomonas aeruginosa ATCC 27853 after 24 hr by serial dilution method. The class given is functional. Particulars: ATCC 27853, 24 h.
Another assay has as its system Staphylococcus aureus. As to the kind of experiment: Antibacterial activity against Staphylococcus aureus ATCC 25923 after 24 hr by serial dilution method. The format is functional. To be noted: ATCC 25923, 24 h.
For a further assay, the system named is MDA-MB-231. As to the kind of experiment: Cytotoxicity against Homo sapiens (human) MDA-MB-231 cells after 72 hr by MTT assay. The class given is functional, cell-based. To be noted: MDA-MB-231, 72 h.
In another assay the test system is HT-29. Briefly: Cytotoxicity against Homo sapiens (human) HT-29 cells after 72 hr by MTT assay. The format is functional, cell-based. To be noted: HT-29, 72 h.

On to `Cc1ccc(-n2c(CCCCc3nnc(SCC(=O)NN)n3-c3ccc(C)cc3)nnc2SCC(=O)NN)cc1`, for which the MIC in the assay with Bacillus subtilis came out at 12.5 µg/mL (≈ 21.5 µM); with Escherichia coli, 12.5 µg/mL (≈ 21.5 µM); in the assay with Pseudomonas aeruginosa, 100 µg/mL (≈ 172 µM); in the assay with Staphylococcus aureus it was 12.5 µg/mL (≈ 21.5 µM). In addition, the results for the IC50 in the assay on A549, in the assay on MDA-MB-231 and in the assay on HT-29 were 36.9 µM, 32.2 µM and 31.2 µM, respectively.
Regarding `Cc1cccc(-n2c(CCCCc3nnc(SCC(=O)NN)n3-c3cccc(C)c3)nnc2SCC(=O)NN)c1`, the MIC against Bacillus subtilis, with Escherichia coli and in the assay on Staphylococcus aureus was 25 µg/mL (≈ 43 µM) throughout. The values for the IC50 in the assay on A549, in the assay on MDA-MB-231 and in the assay on HT-29 were 39.1 µM, 40.2 µM and 38.2 µM, respectively.
For `CCOc1ccc(-n2c(CCCCc3nnc(SCC(=O)NN)n3-c3ccc(OCC)cc3)nnc2SCC(=O)NN)cc1`, the MIC against Bacillus subtilis came out at 6.25 µg/mL (≈ 9.75 µM); against Escherichia coli, 12.5 µg/mL (≈ 19.5 µM); against Pseudomonas aeruginosa, 12.5 µg/mL (≈ 19.5 µM); in the assay with Staphylococcus aureus, 12.5 µg/mL (≈ 19.5 µM). The IC50 in the assay with A549 amounted to 9.13 µM; in the assay with MDA-MB-231, 13.2 µM; with HT-29, 5.16 µM.
For `NNC(=O)CSc1nnc(CCCCc2nnc(SCC(=O)NN)n2C2CCCCC2)n1C1CCCCC1`, the figures for the MIC against Bacillus subtilis and with Escherichia coli were 100 µg/mL (≈ 177 µM) and 50 µg/mL (≈ 88.5 µM), respectively. Besides, the IC50 with A549 was determined as 65.3 µM; with MDA-MB-231, 70.2 µM; in the assay with HT-29, 66.2 µM.
The corresponding values for `CCCCn1c(CCCCc2nnc(SCC(=O)NN)n2CCCC)nnc1SCC(=O)NN` are 100 µg/mL (≈ 195 µM), 100 µg/mL (≈ 195 µM), 69.3 µM, 59.8 µM and 63.4 µM.
The corresponding values for `CCOC(=O)CSc1nnc(CCCCc2nnc(SCC(=O)OCC)n2C2CCCCC2)n1C1CCCCC1` are 100 µg/mL (≈ 169 µM), 100 µg/mL (≈ 169 µM), 51.9 µM, 70.4 µM and 65.3 µM.
With `CCCCn1c(CCCCc2nnc(SCC(=O)OCC)n2CCCC)nnc1SCC(=O)OCC`, the MIC against Bacillus subtilis and with Escherichia coli was 100 µg/mL (≈ 185 µM) in each case. Moreover, the IC50 with A549 turned out to be 61.5 µM; in the assay with MDA-MB-231, 71.4 µM; with HT-29, 69.8 µM.
For the molecule `NNC(=O)CSc1nnc(CCCCc2nnc(SCC(=O)NN)n2-c2ccccc2)n1-c1ccccc1`, the minimal inhibitory concentration (MIC) is 25 µg/mL (≈ 45.2 µM) in the assay with Bacillus subtilis, 25 µg/mL (≈ 45.2 µM) with Escherichia coli, 100 µg/mL (≈ 181 µM) against Pseudomonas aeruginosa and 25 µg/mL (≈ 45.2 µM) with Staphylococcus aureus. The IC50 was determined as 63.2 µM with A549, 69.9 µM in the assay on MDA-MB-231 and 65.3 µM with HT-29.
`CCOC(=O)CSc1nnc(CCCCc2nnc(SCC(=O)OCC)n2-c2ccc(C)cc2)n1-c1ccc(C)cc1`: the MIC with Bacillus subtilis, against Escherichia coli, with Pseudomonas aeruginosa and in the assay with Staphylococcus aureus was 100 µg/mL (≈ 164 µM) in each case. The half-maximal inhibitory concentration (IC50) amounted to 9.13 µM with A549, 24.3 µM in the assay on MDA-MB-231 and 13.5 µM in the assay with HT-29.
In the case of `CCOC(=O)CSc1nnc(CCCCc2nnc(SCC(=O)OCC)n2-c2cccc(C)c2)n1-c1cccc(C)c1`, the MIC against Bacillus subtilis came to 50 µg/mL (≈ 82.1 µM); in the assay with Escherichia coli, 50 µg/mL (≈ 82.1 µM); in the assay on Pseudomonas aeruginosa it was 100 µg/mL (≈ 164 µM); against Staphylococcus aureus, 100 µg/mL (≈ 164 µM). For the same molecule, the IC50 in the assay on A549 was 23.3 µM; in the assay on MDA-MB-231, 25.2 µM; with HT-29 it was 25.8 µM.
As for `CCOC(=O)CSc1nnc(CCCCc2nnc(SCC(=O)OCC)n2-c2ccc(OCC)cc2)n1-c1ccc(OCC)cc1`, the MIC with Bacillus subtilis turned out to be 25 µg/mL (≈ 37.4 µM); in the assay with Escherichia coli, 25 µg/mL (≈ 37.4 µM); against Pseudomonas aeruginosa it was 100 µg/mL (≈ 150 µM); against Staphylococcus aureus, 50 µg/mL (≈ 74.8 µM). Further, the IC50 with A549 amounted to 9.3 µM; with MDA-MB-231 it was 15.1 µM; with HT-29, 13.2 µM.
As for `CCOc1ccc(-n2c(CCCCc3nnc(SC(=O)N(CC)CC)n3-c3ccc(OCC)cc3)nnc2SC(=O)N(CC)CC)cc1`, the MIC was 50 µg/mL (≈ 71.9 µM) against Bacillus subtilis and 100 µg/mL (≈ 144 µM) in the assay on Escherichia coli. The IC50 was found to be 51.9 µM in the assay with A549, 71.6 µM in the assay on MDA-MB-231 and 75 µM in the assay with HT-29.
The corresponding values for `CCN(CC)C(=O)Sc1nnc(CCCCc2nnc(SC(=O)N(CC)CC)n2C2CCCCC2)n1C1CCCCC1` are 100 µg/mL (≈ 162 µM), 100 µg/mL (≈ 162 µM), 51.8 µM, 66.2 µM and 69.9 µM.
Consider `CCCCn1c(CCCCc2nnc(SC(=O)N(CC)CC)n2CCCC)nnc1SC(=O)N(CC)CC`, for which the figures for the IC50 in the assay on A549, in the assay on MDA-MB-231 and with HT-29 were 63.1 µM, 70.3 µM and 64.5 µM, respectively.
Regarding `CCOC(=O)CSc1nnc(CCCCc2nnc(SCC(=O)OCC)n2-c2ccccc2)n1-c1ccccc1`, the MIC came out at 100 µg/mL (≈ 172 µM) with Bacillus subtilis, 50 µg/mL (≈ 86.1 µM) in the assay on Escherichia coli, 100 µg/mL (≈ 172 µM) against Pseudomonas aeruginosa and 100 µg/mL (≈ 172 µM) against Staphylococcus aureus. The figures for the IC50 in the assay on A549, with MDA-MB-231 and in the assay on HT-29 were 34.5 µM, 32.2 µM and 51.2 µM, respectively.
With `CCN(CC)C(=O)Sc1nnc(CCCCc2nnc(SC(=O)N(CC)CC)n2-c2ccccc2)n1-c1ccccc1`, the MIC with Bacillus subtilis was 25 µg/mL (≈ 41.2 µM); in the assay with Escherichia coli, 12.5 µg/mL (≈ 20.6 µM); with Pseudomonas aeruginosa, 50 µg/mL (≈ 82.4 µM); against Staphylococcus aureus, 50 µg/mL (≈ 82.4 µM). For the same molecule, the IC50 in the assay on A549 is 19.3 µM; in the assay with MDA-MB-231, 14.9 µM; in the assay with HT-29, 14.3 µM.
Turning to `CCN(CC)C(=O)Sc1nnc(CCCCc2nnc(SC(=O)N(CC)CC)n2-c2ccc(C)cc2)n1-c1ccc(C)cc1`, the MIC against Bacillus subtilis stood at 12.5 µg/mL (≈ 19.7 µM); against Escherichia coli it was 12.5 µg/mL (≈ 19.7 µM); against Pseudomonas aeruginosa it was 25 µg/mL (≈ 39.4 µM); in the assay with Staphylococcus aureus it was 25 µg/mL (≈ 39.4 µM). Moreover, the IC50 came out at 3.23 µM in the assay on A549, 8.17 µM with MDA-MB-231 and 3.45 µM in the assay on HT-29.
Consider `CCN(CC)C(=O)Sc1nnc(CCCCc2nnc(SC(=O)N(CC)CC)n2-c2cccc(C)c2)n1-c1cccc(C)c1`, for which the minimal inhibitory concentration (MIC) came to 25 µg/mL (≈ 39.4 µM) in the assay with Bacillus subtilis, 12.5 µg/mL (≈ 19.7 µM) against Escherichia coli, 25 µg/mL (≈ 39.4 µM) against Pseudomonas aeruginosa and 50 µg/mL (≈ 78.8 µM) in the assay with Staphylococcus aureus. Also, the 50% inhibitory concentration (IC50) worked out at 15.2 µM with A549, 17.2 µM in the assay on MDA-MB-231 and 10.2 µM in the assay with HT-29.
In the case of `CC1(C)S[C@@H]2[C@H](NC(=O)[C@H](N)c3ccccc3)C(=O)N2[C@H]1C(=O)O` [AMPICILLIN], the MIC came out at 12.5 µg/mL (≈ 35.8 µM) in the assay on Bacillus subtilis, 6.25 µg/mL (≈ 17.9 µM) in the assay on Escherichia coli, 12.5 µg/mL (≈ 35.8 µM) in the assay on Pseudomonas aeruginosa and 6.25 µg/mL (≈ 17.9 µM) with Staphylococcus aureus.
For `COc1cccc2c1C(=O)c1c(O)c3c(c(O)c1C2=O)C[C@@](O)(C(=O)CO)C[C@@H]3O[C@H]1C[C@H](N)[C@H](O)[C@H](C)O1` [DOXORUBICIN], the 50% inhibitory concentration (IC50) was found to be 0.09 µM with A549, 0.1 µM with MDA-MB-231 and 0.07 µM in the assay on HT-29.

The record behind these values is ChEMBL document CHEMBL3046023, “Synthesis, in vitro cytotoxicity, and anti-microbial studies of 1,4-bis(4-substituted-5-mercapto-1,2,4-triazol-3-yl)butanes” (Med Chem Res, 2012).
